Test results taken from ChEMBL document CHEMBL1130200, “Discovery of 3-aminobenzyloxycarbonyl as an N-terminal group conferring high affinity to the minimal phosphopeptide sequence recognized by the Grb2-SH2 domain” (J Med Chem, 1997).
Where a SMILES comes first, the peptide text is derived from it. [ ]: non-standard residue; d: D form. The star is where a group is joined. pY = N[C@@H](Cc1ccc(OP(=O)(O)O)cc1)C(=O)O; 2Abz = Nc1ccccc1C(=O)O; Cbz = O=C(OCc1ccccc1)*

What follows are compounds tested against Growth factor receptor-bound protein 2 (Homo sapiens, UniProt P62993) (assay: Inhibition of Grb2-SH2 domain binding to phospho-EGF receptor intracellular C-terminal domain).

Compound | IC50 [µM]
CC[C@H](C)[C@H](NC(=O)[C@H](Cc1ccc(OP(=O)(O)O)cc1)NC(=O)OCc1cccc(N)c1)C(=O)N[C@@H](CC(N)=O)C(N)=O | 0.065
CC[C@H](C)[C@H](NC(=O)[C@@H](N)Cc1ccc(OP(=O)(O)O)cc1)C(=O)N[C@@H](CC(N)=O)C(N)=O (H-[pY]-Ile-Asn-NH2) | 56.9
CC[C@H](C)[C@H](NC(=O)[C@H](Cc1ccc(OP(=O)(O)O)cc1)NC(=O)OCc1ccccc1)C(=O)N[C@@H](CC(N)=O)C(N)=O (Cbz-[pY]-Ile-Asn-NH2) | 6.35
CC[C@H](C)[C@H](NC(=O)[C@H](Cc1ccc(OP(=O)(O)O)cc1)NC(C)=O)C(=O)N[C@@H](CC(N)=O)C(N)=O (Ac-[pY]-Ile-Asn-NH2) | 8.64

The next lines start with the values.

IC50 [µM] | Compound
0.022 | CC[C@H](C)[C@H](NC(=O)[C@H](Cc1ccc(OP(=O)(O)O)cc1)NC(=O)[C@H](CCC(=O)O)NC(=O)c1ccccc1N)C(=O)N[C@@H](CC(N)=O)C(N)=O (H-[2Abz]E[pY]IN-NH2)
7.9 | CC[C@H](C)[C@H](NC(=O)[C@H](Cc1ccc(OP(=O)(O)O)cc1)NC(=O)[C@@H](N)CCC(=O)O)C(=O)N[C@@H](CC(N)=O)C(N)=O (H-E[pY]IN-NH2)
